Results from patent US8222261B2, “Chemical compounds” (GlaxoSmithKline, LLC, priority 2006, dated 2012).

What was measured:
[1] = test system: transgenic wild-type (WT) and GPR119 knock-out (KO) mice; test: Effect on circulating GLP-1 and GIP in wild-type and GPR119 knock-out mice; format: in vivo; conditions: 30 mg/kg oral gavage; for incretin hormone levels (total GLP-1 and GIP): 60 min after dosing
Description: 17 weeks old male transgenic wild-type (WT) and GPR119 knock-out (KO) mice (Charles River Laboratories, USA) were fasted overnight then randomly distributed into two treatment groups for each genotype with n=8 and n=10 animals per treatment group for KO and WT mice respectively. Animals received either vehicle (0.5% HPMC/0.1% Tween80) or a GPR119 agonist (Example 1) at a dose of 30 mg/kg (10 mL/kg), administered by oral gavage. Sixty minutes after the oral gavage the mice were anesthetized using isofluorane and a blood sample was collected by cardiac puncture, before sacrificing the animal by cervical dislocation. Blood samples were treated as described above for determination of incretin hormone levels. Plasma glucose levels were measured using an Olympus AU640 analyzer (Olympus America Inc, Melville, N.Y.), and insulin levels an electrochemoluminescence assay (Bioveris, Gaithersburg Md.).
Data is represented as box plots summarizing the distribution of data for each treatment group, as described above. Horizontal lines represent the mean data. FIG. 3 and FIG. 4 show total GLP-1 and GIP levels measured in circulation following administration of vehicle or 30 mg/kg GPR119 agonist (Example 1) in WT and KO mice.

[2] = test system: male C57BL/6 mice; test: Oral glucose tolerance in normal mice; format: in vivo; conditions: fasted mice, Example 1 30 mg/kg, DPPIV inhibitor 10 mg/kg oral, 2 g/kg dextrose oral 1 h after dosing
Description: Nine weeks old male C57BL/6 mice (Taconic farms, USA) were fasted overnight and randomly assigned to three different treatment groups (n=9-10 per treatment arm) to receive vehicle (0.5% HPMC/0.1% Tween80), a GPR119 agonist (Example 1, 30 mg/kg) or a positive control (10 mg/kg), specifically a DPPIV inhibitor known to improve glucose tolerance in vivo by preventing degradation of the GLP-1 and GIP. Vehicle or compounds were delivered by oral gavage at a volume of 10 mL/kg, and the tip of tail was nicked using a scalpel to allow whole blood glucose measurements. One hour after administration of vehicle or test compounds, 2 g/kg of dextrose was administered by oral gavage. Whole blood glucose levels were determined from the abrasion at the tip of the tail at time points as indicated in FIG. 16 using a Glucometer (Freestyle, Therasense). At the end of the study the mice were sacrificed by cervical dislocation.

[3] = test system: Male Sprague-Dawley rats; test: Effect on circulating GLP-1 and GIP in vivo in rats; conditions: 10 mg/kg oral
Description: On the day before the experiment, food was removed in the afternoon and the following morning animals were randomly assigned to two treatment groups, vehicle (n=7) or a GPR119 agonist (Example 1; n=8). Blood samples were collected prior to, and 90 minutes following oral administration of either vehicle (0.5% HPMC/0.1% Tween80) or 10 mg/kg of Example 1. Blood samples were treated as described above and analyzed for incretin hormones, plasma glucose and insulin. The rats were sacrificed at the end of the study by an overdose of Nembutal® pentobarbital.
Data is represented as line graphs of the measurements prior to gavage (Pre) and 90 min following administration of vehicle or GPR119 agonist (Post) analyzed for total GLP-1 (FIG. 7), total GIP (FIG. 8), plasma glucose (FIG. 9) and insulin (FIG. 10) for individual animals.

[4] = test system: transgenic wild type (WT) and GPR119 knock-out (KO) mice; test: Oral glucose tolerance in wild type and GPR119 knockout mice; format: in vivo; conditions: 2 g/kg dextrose oral 1 h after dosing
Description: Male transgenic wild type (WT) and GPR119 knock-out (KO) mice (Charles River Laboratories, USA), at an age of 12 weeks, were fasted overnight (approximately 15 hrs) then randomly grouped (n=8-10) to receive vehicle (0.5% HPMC/0.1% Tween80), a GPR119 agonist (30 mg/kg) or a positive control (10 mg/kg), the DPPIV inhibitor as described above. Vehicle or compounds were delivered orally by oral gavage at a volume of 10 mL/kg, and the tip of tail was nicked using a scalpel to allow whole blood glucose measurements. One hour after administration of vehicle or test compounds, dextrose was administered orally at 2 g/kg. Whole blood glucose levels were measured prior to, and 10, 20, 30, 45, 60, 90 and 120 min after the oral glucose load using a Glucometer (Freestyle, Therasense) from the tip of tail. At the end of the study the mice were sacrificed by cervical dislocation.
The glucose tolerance was calculated as the area under the glucose curve (AUC). Data is represented as box plots summarizing the distribution of data for each treatment group, as described above. Horizontal lines represent the mean data.

[5] = test system: Male Sprague-Dawley rats; test: Glucose stimulated insulin secretion and glucose disposal in rats, intravenous glucose tolerance test; format: in vivo; conditions: 10 mg/kg oral, 0.5 g/kg dextrose i.v. 90 min after dosing, vs vehicle
Description: Male Sprague-Dawley rats (Charles River Laboratories, USA) had catheters surgically implanted into the jugular vein and allowed to recover for one week. On the day of the experiment, food was removed in the morning and animals were randomly assigned to two treatment groups, vehicle (n=8) or GPR119 agonist (Example 1; n=9). In the afternoon, baseline blood samples were collected prior to, and 90 minutes following oral administration of either vehicle (0.5% HPMC/0.1% Tween80) or 10 mg/kg Example 1. The intravenous glucose tolerance test was initiated immediately after the 90 minute blood sample by intravenous infusion of 0.5 g/kg dextrose over 15-30 seconds into the jugular vein, Blood samples were collected from the jugular vein at 2, 5, 10, 15, and 30 min and treated as described for the hyperglycemic clamp. Serum was collected for analysis of glucose levels using an Olympus AU640 clinical chemistry analyzer (Olympus America Inc, Melville, N.Y.) and insulin levels by an electrochemoluminescence assay (Bioveris, Gaithersburg Md.). The rats were sacrificed at the end of the study by an overdose of Nembutal.
FIG. 14 and FIG. 15 show circulating plasma glucose and insulin concentrations at each time point throughout the intravenous glucose tolerance test. The data is represented as the average glucose and insulin levels±SEM for all animals in for the two treatment groups.

[6] = fasted rats, 90 min after dosing vs pre-dose
[7] = rats, 90 min, vs vehicle or baseline

CC(C)OC(=O)N1CCC(Oc2ncnc3c2CCN3c2ccc(S(C)(=O)=O)cc2F)CC1 [Example 1, 1-Methylethyl 4-({7-[2-fluoro-4-(methylsulfonyl)phenyl]-6,7-dihydro-5H-pyrrolo[2,3-d]pyrimidin-4-yl}oxy)-1-piperidinecarboxylate]
incretin hormone levels (total GLP-1 and GIP) ([1]; GPR119 knock out mice): without effect | fasting glucose levels ([1]; WT and KO mice, 60 min): not affected | fasting insulin levels ([1]; WT and KO mice, 60 min): not affected | incretin hormone levels (total GLP-1 and GIP) ([1]; WT mice): increase | glucose disposal during the oral glucose tolerance test (whole blood glucose) [2]: significantly enhanced | circulating levels of total GIP [3, 6]: increases | circulating levels of total GLP-1 [3, 6]: increases | fasting glucose [3, 7]: not significantly affected | fasting insulin [3, 7]: not significantly affected | glucose tolerance ([4]; GPR119 KO mice, 30 mg/kg oral): no effect | reduction of total glucose AUC ([4]; WT mice, Example 1 30 mg/kg, DPPIV inhibitor 10 mg/kg oral): 28% | area under the glucose curve (AUC) [5]: significantly reduced | area under the insulin curve [5]: significantly increased | peak (2 minute) insulin response [5]: significantly increased | rate of glucose elimination [5]: significantly increased
